Assay results published in patent US11897898B2, “Pyridine macrocycle compounds as ASK1 inhibiting agents” (BIOGEN MA INC., priority 2018, dated 2024).

Assay: In vivo brain penetration (rat Kpuu study)
Conditions: brain and plasma (unbound), IV infusion in the carotid artery for four hours, 1 mg/kg, steady state, Kpuu=Cu,b/Cu,p
Experimental: To evaluate the CNS penetration of the compounds described herein, several compounds were selected for in vivo rat Kpuu studies. In these experiments the compounds are administered via an IV infusion (using N,N-dimethylacetamide:ethanol:1,2-propylene glycol:water in a 1:1:3:5 ratio as the vehicle) in the carotid artery for a period of four hours (1 mg/kg, 0.1 mg/mL) to reach steady state. After this time the plasma and brain concentration levels are quantified, and the values are adjusted by the measured protein binding in plasma and brain homogenate to calculate the Kpuu (see Di, L.; Kerns, E. H. Blood-Brain Barrier in Drug Discovery (Wiley)) according to the equation below. Kpuu=Cu,b/Cu,p • Wherein: • Cu,b=Unbound concentration in brain (C×fu,b). (C=concentration at steady state; fu,b=fraction unbound in brain) • And in which: Cu,p=Unbound concentration in plasma (C×fu,p). (C=concentration at steady state; fu,p=fraction unbound in plasma)
Plasma and brain protein binding values were generated via the Rapid Equilibrium Dialysis method. The compound of interest was incubated in K2EDTA plasma and brain homogenate (homogenized 1:7 (w:v) in 1×PBS) purchased from BioIVT (Westbury, N.Y.), opposite a buffered compartment of 100 mM Potassium phosphate/150 mM Sodium chloride, pH 7.4, at 1 μM for 4 hr and 6 hr respectively. At the conclusion of incubation samples were taken from both matrix and buffered compartments, matrix-matched using blank buffer and matrix, extracted with acetonitrile, diluted with water, and analyzed utilizing an Agilent RapidFire 365 high-throughput LC coupled with MS/MS detection via an AB Sciex 5500. Free fractions (fu) were then calculated by comparing internal standard/analyte peak-area ratios of matrix and buffered compartments. Cross-species brain protein binding was considered to be equivalent for the purposes of calculating free fraction (see Di, L., et al., (2011a) Species Independence in Brain Tissue Binding Using Brain Homogenates, Drug Metab Dispos 39:1270-1277).
Total drug concentration in plasma and brain tissue was measured via well-established bioanalytical extraction (protein precipitation) and detection methods (LC-MS/MS). Brain tissues were homogenized 1:4 (w:v) with 1×PBS in MP Biomedicals Lysing Matrix D tubes via an MP Biomedicals FastPrep-24™ homogenizer and were then extracted alongside plasma samples by matrix-matching with blank K2EDTA plasma (purchased from BioIVT), followed by protein crash/extraction with acetonitrile, supernatant dry down under nitrogen, and reconstitution with an acidified aqueous/organic mixture before being measured against a calibration curve of the compound of interest prepared in plasma, matrix-matched with blank brain homogenate (generated with brains purchased from BioIVT), and similarly extracted. Reconstituted extracts were then analyzed via LC-MS/MS (AB Sciex 5500) utilizing a binary HPLC setup (Shimadzu LC-20ADvp) and reverse-phase chromatography gradient (ACE 3 C18-AR). Peak area ratios and a 1/x^2 regression fit were used to generate sample concentration values that, combined with plasma and brain protein binding values, were used to generate free drug concentration values and partitioning coefficient (Kpuu).

C[C@H]1CCCOc2ncc(Br)cc2C(=O)Nc2cccc(n2)-c2nncn21 (single isomer, unassigned) [Compound 1] and C[C@H]1CCCOc2ncc(C#N)cc2C(=O)Nc2cccc(n2)-c2nncn21 [Compound 38, (S)-10-Methyl-4-oxo-1^4H-6-oxa-3-aza-2(2,6),5(3,2)-dipyridina-1(3,4)-triazolacyclodecaphane-5^5-carbonitrile] cannot be ordered by Kp uu at 4 h: ≥ 0.1 for the first, < 0.1 for the second.

C[C@H]1CCCOc2ncccc2C(=O)Nc2cccc(n2)-c2nncn21 (single isomer, unassigned) [Compound 4] and C[C@H]1CCCOc2ncc(C(F)(F)F)cc2C(=O)Nc2cccc(n2)-c2nncn21 (single isomer, unassigned) [Compound 41] cannot be ordered by Kp uu at 4 h: ≥ 0.1 for the first, ≥ 0.1 for the second.

With C[C@H]1CCCOc2ncc(-c3ccncc3)cc2C(=O)Nc2cccc(n2)-c2nncn21 [Compound 17, (S)-10-Methyl-5^5-(pyridin-4-yl)-1^4H-6-oxa-3-aza-2(2,6),5(3,2)-dipyridina-1(3,4)-triazolacyclodecaphan-4-one] the Kp uu at 4 h was ≥ 0.1.
